The source of these data is patent US20220177834A1, “STABLE SYSTEM FOR THE IN VITRO CULTURE OF CEREBELLAR GRANULE CELL PRECURSORS (GCP), STABLE METHOD FOR THE IN VITRO CULTURE OF SAID CELLS AND USE OF SAID SYSTEM OR METHOD FOR IN VITRO CULTURE” (UNIVERSITA DEGLI STUDI Dl ROMA "LA SAPIENZA", priority 2019, published 2022).

“Also recorded” adds a separate entry of the source.

The subject of experiment [1] is Shh pathway. Description: Shh pathway expression (Gli1, N-Myc; Western Blot, real time Q-PCR) in GCP neurosphere cultures. Format: cell-based, mouse. To be noted: Western Blot, neurospheres under different culture conditions; SAG 200 nM, EGF 1 μM. As for the experimental part:
(§1) After surgical resection from a mouse on the seventh day of postnatal life (P7) the cerebellum was mechanically shredded in a buffer containing HBSS, glucose and antibiotics, and DNase (at concentrations as defined above) and the individual cells thus obtained were counted and plated at a dilution of 16000 cells/cm^2 on a medium composed of DMEM-F12, glucose, Vitamin A-free B27, insulin, NALC, heparin, antibiotics (at concentrations as defined above) and SAG (200 nM) and EGF ([…]). On this medium the cells can be enriched and maintained for an unlimited time, after periodical dissociation of the spheres with Accutase® (2-3 times per week) and propagation by dilution (to prevent excessive growth and consequent death from nutrient deficiency and hypoxia). The reaction conditions were as described above.
A general note: A western blot detects proteins with antibodies after separation by electrophoresis.

Experiment [2] concerns GCP cells. The experiment is described as follows: Clonogenicity / long-term propagation of GCP neurosphere cultures. Format: cell-based, mouse. As to the method: as §1

Take `CNC1CCC(N(Cc2cccc(-c3ccncc3)c2)C(=O)c2sc3ccccc3c2Cl)CC1` (stereo not drawn) [SAG]: the “expression of molecular biomarkers of the Shh pathway, Gli1 and N-Myc” value in experiment [1] was “active; also recorded: maintains a high expression of the Shh pathway”. Also, the “long-term survival of the culture” value in experiment [2] (factor alone) is “does not ensure long-term survival of the culture”. In experiment [2] (several weeks after being grown), the “clonogenic power (average spheres) over time” value is recorded as “undergoes progressive decline”.
